Values of other authors, collected in patent US20090239791A1, “PHARMACEUTICAL COMPOSITION CONTAINING LIPOPHILIC SUBSTANCE WHICH INHIBITS IL-2 PRODUCTION” (Astellas Pharma Inc., priority 2007, published 2009).

Test system: human mixed lymphocyte reaction
Settings: Transplant Proceedings, No 5, Suppl 6, 36-39, 1987

C=CC[C@@H]1/C=C(\C)C[C@H](C)C[C@H](OC)C2O[C@@](O)(C(=O)C(=O)N3CCCC[C@H]3C(=O)O[C@H](/C(C)=C/[C@@H]3CC[C@@H](O)[C@H](OC)C3)[C@H](C)[C@@H](O)CC1=O)[C@H](C)C[C@@H]2OC (relative stereo) [Tacrolimus, [3S-[3R*[E(1S*,3S*,4S*)],4S*,5R*,8S*,9E,12R*,14R*,15S*,16R*,18S*,19S*,26aR*]]-5,6,8,11,12,13,14,15,16,17,18,19,24,25,26,26a-hexadecahydro-5,19-dihydroxy-3-[2-(4-hydroxy-3-methoxycyclohexyl)-1-methylethenyl]-14,16-dimethoxy-4,10,12,18-tetramethyl-8-(2-propenyl)-15,19-epoxy-3H-pyrido[2,1-c][1,4]oxaazacyclotricosine-1,7,20,21(4H,23H)-tetrone, monohydrate]
IC50 (a 50% inhibitory drug concentration in a human mixed lymphocyte reaction): 0.18 ng/mL
